Measurements as given in PubChem BioAssay (NCI).
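Step 1: Grow cells in 96-well plates. Step 2: Expose to compound for 48 hours at 5 concentrations. Step 3: Interpolate endpoints linearly; if unreached, use highest concentration. GI50 is the concentration that inhibits growth by half. TGI: concentration producing complete growth inhibition.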

Legend:
Assay in all cases: inhibition of tumour cell growth, NCI panel, 48 h
786-0 renal = test system: 786-0 renal
A498 renal = test system: A498 renal
A549 NSCLC = test system: A549 NSCLC
ACHN renal = test system: ACHN renal
BT-549 breast = test system: BT-549 breast
CAKI-1 renal = test system: CAKI-1 renal
CCRF-CEM leukemia = test system: CCRF-CEM leukemia
COLO 205 colon = test system: COLO 205 colon
DU-145 prostate = test system: DU-145 prostate
EKVX NSCLC = test system: EKVX NSCLC
HCC-2998 colon = test system: HCC-2998 colon
HCT-116 colon = test system: HCT-116 colon
HCT-15 colon = test system: HCT-15 colon
HL-60(TB) leukemia = test system: HL-60(TB) leukemia
HOP-62 NSCLC = test system: HOP-62 NSCLC
HOP-92 NSCLC = test system: HOP-92 NSCLC
HS 578T breast = test system: HS 578T breast
HT29 colon = test system: HT29 colon
IGROV1 ovarian = test system: IGROV1 ovarian
K-562 leukemia = test system: K-562 leukemia
KM12 colon = test system: KM12 colon
LOX IMVI melanoma = test system: LOX IMVI melanoma
M14 melanoma = test system: M14 melanoma
MALME-3M melanoma = test system: MALME-3M melanoma
MCF7 breast = test system: MCF7 breast
MDA-MB-231 breast = test system: MDA-MB-231 breast
MDA-MB-435 = test system: MDA-MB-435
MDA-MB-468 breast = test system: MDA-MB-468 breast
MOLT-4 leukemia = test system: MOLT-4 leukemia
NCI-H226 lung = test system: NCI-H226 lung
NCI-H23 lung = test system: NCI-H23 lung
NCI-H460 lung = test system: NCI-H460 lung
NCI-H522 lung = test system: NCI-H522 lung
NCI/ADR-RES ovarian = test system: NCI/ADR-RES ovarian
OVCAR-3 ovarian = test system: OVCAR-3 ovarian
OVCAR-4 ovarian = test system: OVCAR-4 ovarian
OVCAR-5 ovarian = test system: OVCAR-5 ovarian
OVCAR-8 ovarian = test system: OVCAR-8 ovarian
PC-3 prostate = test system: PC-3 prostate
RPMI-8226 leukemia = test system: RPMI-8226 leukemia
RXF 393 renal = test system: RXF 393 renal
SF-268 CNS = test system: SF-268 CNS
SF-295 CNS = test system: SF-295 CNS
SF-539 CNS = test system: SF-539 CNS
SK-MEL-2 melanoma = test system: SK-MEL-2 melanoma
SK-MEL-28 melanoma = test system: SK-MEL-28 melanoma
SK-MEL-5 melanoma = test system: SK-MEL-5 melanoma
SK-OV-3 ovarian = test system: SK-OV-3 ovarian
SN12C renal = test system: SN12C renal
SNB-19 CNS = test system: SNB-19 CNS
SNB-75 CNS = test system: SNB-75 CNS
SR leukemia = test system: SR leukemia
SW-620 colon = test system: SW-620 colon
T-47D breast = test system: T-47D breast
TK-10 renal = test system: TK-10 renal
U251 CNS = test system: U251 CNS
UACC-257 melanoma = test system: UACC-257 melanoma
UACC-62 melanoma = test system: UACC-62 melanoma
UO-31 renal = test system: UO-31 renal

O=C(c1ccc(Cl)cc1)C1[C@H](c2ccccc2Cl)[C@@H](c2ccccc2)NC12C(=O)Nc1ccc(Br)cc12 (stereo partly drawn)
GI50 (786-0 renal): 16.6 µM | TGI (786-0 renal): 34.4 µM | GI50 (A498 renal): 19.9 µM | TGI (A498 renal): 46.7 µM | GI50 (A549 NSCLC): 17.5 µM | TGI (A549 NSCLC): 42.3 µM | GI50 (ACHN renal): 22.8 µM | TGI (ACHN renal): 69.5 µM | GI50 (BT-549 breast): 14.5 µM | TGI (BT-549 breast): 28 µM | GI50 (CAKI-1 renal): 14.8 µM | TGI (CAKI-1 renal): 33.9 µM | GI50 (CCRF-CEM leukemia): 24.4 µM | TGI (CCRF-CEM leukemia): 68.2 µM | GI50 (COLO 205 colon): 17.4 µM | TGI (COLO 205 colon): 31.6 µM | GI50 (DU-145 prostate): 19.2 µM | TGI (DU-145 prostate): 40.5 µM | GI50 (EKVX NSCLC): 16.6 µM | TGI (EKVX NSCLC): 44 µM | GI50 (HCC-2998 colon): 15.5 µM | TGI (HCC-2998 colon): 31.1 µM | GI50 (HCT-116 colon): 14.4 µM | TGI (HCT-116 colon): 27.6 µM | GI50 (HCT-15 colon): 15.8 µM | TGI (HCT-15 colon): 30.5 µM | GI50 (HL-60(TB) leukemia): 20.8 µM | TGI (HL-60(TB) leukemia): 49.1 µM | GI50 (HOP-62 NSCLC): 15 µM | TGI (HOP-62 NSCLC): 30 µM | GI50 (HOP-92 NSCLC): 15.6 µM | TGI (HOP-92 NSCLC): 31 µM | GI50 (HS 578T breast): 16.9 µM | TGI (HS 578T breast): 42.7 µM | GI50 (HT29 colon): 17.9 µM | TGI (HT29 colon): 37 µM | GI50 (IGROV1 ovarian): 17.1 µM | TGI (IGROV1 ovarian): 41 µM | GI50 (K-562 leukemia): 26.8 µM | TGI (K-562 leukemia): 88.9 µM | GI50 (KM12 colon): 19.7 µM | TGI (KM12 colon): 44.7 µM | GI50 (LOX IMVI melanoma): 15.2 µM | TGI (LOX IMVI melanoma): 28.5 µM | GI50 (M14 melanoma): 15.3 µM | TGI (M14 melanoma): 29.3 µM | GI50 (MALME-3M melanoma): 15.5 µM | TGI (MALME-3M melanoma): 29 µM | GI50 (MCF7 breast): 15.7 µM | TGI (MCF7 breast): 37.3 µM | GI50 (MDA-MB-231 breast): 15.6 µM | TGI (MDA-MB-231 breast): 29.4 µM | GI50 (MDA-MB-435): 15.2 µM | TGI (MDA-MB-435): 29.6 µM | GI50 (MDA-MB-468 breast): 11 µM | TGI (MDA-MB-468 breast): 26.9 µM | GI50 (MOLT-4 leukemia): 21.2 µM | TGI (MOLT-4 leukemia): 61.7 µM | GI50 (NCI-H226 lung): 14.4 µM | TGI (NCI-H226 lung): 29.3 µM | GI50 (NCI-H23 lung): 14.9 µM | TGI (NCI-H23 lung): 31.1 µM | GI50 (NCI-H460 lung): 17.7 µM | TGI (NCI-H460 lung): 35 µM | GI50 (NCI-H522 lung): 14.1 µM | TGI (NCI-H522 lung): 29.9 µM | GI50 (NCI/ADR-RES ovarian): 15.5 µM | TGI (NCI/ADR-RES ovarian): 30.7 µM | GI50 (OVCAR-3 ovarian): 15.6 µM | TGI (OVCAR-3 ovarian): 32.4 µM | GI50 (OVCAR-4 ovarian): 18.3 µM | TGI (OVCAR-4 ovarian): 49.7 µM | GI50 (OVCAR-5 ovarian): 14.9 µM | TGI (OVCAR-5 ovarian): 29.6 µM | GI50 (OVCAR-8 ovarian): 17.7 µM | TGI (OVCAR-8 ovarian): 36.6 µM | GI50 (PC-3 prostate): 15.7 µM | TGI (PC-3 prostate): 37.5 µM | GI50 (RPMI-8226 leukemia): 26 µM | TGI (RPMI-8226 leukemia): 84.5 µM | GI50 (RXF 393 renal): 14.1 µM | TGI (RXF 393 renal): 28.2 µM | GI50 (SF-268 CNS): 16.6 µM | TGI (SF-268 CNS): 38.7 µM | GI50 (SF-295 CNS): 16.5 µM | TGI (SF-295 CNS): 32.4 µM | GI50 (SF-539 CNS): 16.5 µM | TGI (SF-539 CNS): 31.8 µM | GI50 (SK-MEL-2 melanoma): 15.9 µM | TGI (SK-MEL-2 melanoma): 31.6 µM | GI50 (SK-MEL-28 melanoma): 16 µM | TGI (SK-MEL-28 melanoma): 29.7 µM | GI50 (SK-MEL-5 melanoma): 16.1 µM | TGI (SK-MEL-5 melanoma): 29.8 µM | GI50 (SK-OV-3 ovarian): 24.3 µM | TGI (SK-OV-3 ovarian): 70.2 µM | GI50 (SN12C renal): 15 µM | TGI (SN12C renal): 28.2 µM | GI50 (SNB-19 CNS): 24.8 µM | TGI (SNB-19 CNS): 78.3 µM | GI50 (SNB-75 CNS): 10.5 µM | TGI (SNB-75 CNS): 35 µM | GI50 (SR leukemia): 16.5 µM | TGI (SR leukemia): 41.7 µM | GI50 (SW-620 colon): 16.1 µM | TGI (SW-620 colon): 31.4 µM | GI50 (T-47D breast): 15.2 µM | TGI (T-47D breast): 30.3 µM | GI50 (TK-10 renal): 18.3 µM | TGI (TK-10 renal): 50.6 µM | GI50 (U251 CNS): 16.1 µM | TGI (U251 CNS): 29.9 µM | GI50 (UACC-257 melanoma): 17.6 µM | TGI (UACC-257 melanoma): 37.8 µM | GI50 (UACC-62 melanoma): 13.7 µM | TGI (UACC-62 melanoma): 27 µM | GI50 (UO-31 renal): 13.4 µM | TGI (UO-31 renal): 30.6 µM
